In publication PMC6369240, “Biological evaluation and structure activity relationship of 9-methyl-1-phenyl-9H-pyrido[3,4-b]indole derivatives as anti-leishmanial agents” (Bioorganic Chemistry, 2019):

What was measured:
[1] = tested on: L. infantum JPCM5 MCAN/ES/98/LLM-87 promastigotes; test: L. infantum promastigote assay (Alamar blue); assay type: cell-based, Leishmania infantum; conditions: for S.I (CC50/IC50), L. infantum promastigote: HeLa CC50 / L. infantum promastigote EC50; for EC50: Leishmania infantum, 72 h, Alamar blue
Experimental: (§1) Anti-leishmanial activity of these analogues was determined by evaluating their inhibition activity against both promastigote, amastigote forms of Leishmania infantum and Leishmania donovani strains. […] Anti-leishmanial drugs miltefosine and pentamidine were used as standards for comparison purpose.
Anti-promastigote activity of these reported β-carboline derivatives was determined by Alamar blue assay method.
(§2) L. donovanipromastigotes were cultured at 37 °C in M199 medium supplemented with 10% heat-inactivated fetal calf serum. L. infantum JPCM5 MCAN/ES/98/LLM-87 promastigotes were cultured at 26 °C in modified Eagle’s medium (HOMEM). Parasites were incubated with serial dilutions of compounds for 72 h, followed by Alamar blue-based assay as previously described.

[2] = HeLa cell cytotoxicity, Alamar blue assay; assay type: cell-based; conditions: human; HeLa cells, ~65 h incubation plus 5 h Alamar Blue
Experimental: HeLa cell cytotoxicity studies were carried out as described previously. Briefly, the cells were cultured in DMEM supplemented with 10% fetal calf serum and 2 mM L-glutamine. Cells were plated at initial cell concentration of 2 × 10^4 cells/well and incubated with the compounds for ∼65 h prior to addition of Alamar Blue solution for further 5 h.

[3] = tested on: L. donovani promastigotes; test: L. donovani promastigote assay (Alamar blue); assay type: cell-based, Leishmania donovani; conditions: for S.I (CC50/IC50), L. donovani promastigote: HeLa CC50 / L. donovani promastigote EC50; for EC50: Leishmania donovani, 72 h, Alamar blue
Experimental: as §1
L. donovani promastigote inhibition potency of these reported β-carboline derivatives was determined by Alamar blue assay method.
as §2

[4] = tested on: L. donovani LdBOB axenic amastigotes; test: L. donovani axenic amastigote assay (Alamar blue); assay type: cell-based, Leishmania donovani; conditions: for S.I (CC50/IC50), L. donovani axenic amastigote: HeLa CC50 / L. donovani axenic amastigote EC50; for EC50: 72 h, Alamar blue
Experimental: (§3) L. donovaniLdBOB axenic amastigotes or L. infantum JPCM5 MCAN/ES/98/LLM-87 were cultured at 37 °C in modified Eagle’s medium (HOMEM; L. infantum) and axenic amastigotes were incubated for 72 h with compounds, followed by Alamar blue-based assay as previously described.

[5] = tested on: L. infantum JPCM5 MCAN/ES/98/LLM-87 axenic amastigotes; test: L. infantum axenic amastigote assay (Alamar blue); assay type: cell-based, Leishmania infantum; conditions: for S.I (CC50/IC50), L. infantum axenic amastigote: HeLa CC50 / L. infantum axenic amastigote EC50; for EC50: Leishmania infantum, 72 h, Alamar blue
Experimental: Alamar blue assay method was used to determine inhibition potential of these β-carboline derivatives against (human life stage forms) axenic amastigotes.
as §3

[6] = tested on: L. donovani LdBOB intracellular amastigotes in PMA differentiated THP-1 cells; test: Intra macrophage L. donovani (amastigote) assay in THP-1 cells; assay type: cell-based, Leishmania donovani; conditions: for S.I (CC50/IC50), L. donovani intracellular amastigote: HeLa CC50 / L. donovani intracellular amastigote EC50; for EC50: THP-1 macrophages, 72 h, microscopy readout
Experimental: Although, axenic amastigotes assay most commonly used to screen new leishmanial agents are different from intracellular amastigotes in terms of protein expression and drug susceptibility. […] THP-1 (human monocytic leukemia) cells were a kind gift from Dr Susan Wylie (Dundee) and maintained in minimal essential medium plus 10% (vol/vol) FBS. […] Briefly, THP-1 cells (20,000 per well, 200 μL) were plated into 96 well plates in presence of 10 nM PMA and incubated at 37 °C in 5% CO2 atmosphere for 75 h. […] Any remaining extracellular amastigotes were removed and the adhered cells were washed with the same supplemented PBS solution as above. Pre-aliquoted compounds in a serial dilution were added from another plate, such that the total well volume was 200 μL and incubated for further 72 h. Cells were fixed with 100% methanol, stained with Giemsa and examined microscopically.

[7] = Leishmania donovani, THP-1, 72 h

EC50 [1] [µM] | EC50 [3] [µM] | melting point [°C] | EC50 ([4]; Leishmania donovani) [µM] | EC50 [5] [µM] | EC50 [6, 7] [µM] | EC50 [6] [µM] | EC50 [4] [µM] | Structure (SMILES) | S.I (CC50/IC50), L. infantum promastigote [1] | CC50 [2] [µM] | S.I (CC50/IC50), L. donovani promastigote [3] | S.I (CC50/IC50), L. donovani axenic amastigote [4] | S.I (CC50/IC50), L. infantum axenic amastigote [5] | S.I (CC50/IC50), L. donovani intracellular amastigote [6]
3.73 ± 0.28 | 9.45 ± 0.72 | 148 to 150 | 5.3 ± 0.4 | 2.6 ± 0.2 | 7.8 | 9.4 ± 1.3 |  | Cc1ccccc1N1CCN(C(=O)c2cc3c4ccccc4n(C)c3c(-c3ccccc3)n2)CC1 [7c, (9-methyl-1-phenyl-9H-pyrido[3,4-b]indol-3-yl)(4-o-tolylpiperazin-1-yl)methanone] | >134.0 | > 500 | >52.9 | 94.3 | >192.3 | 53.2
13.8 ± 0.9 | 8.42 ± 0.45 | 168 to 170 | 6.4 ± 0.2 | 15.3 ± 1.1 | 11.8 ± 0.7 |  |  | COc1ccccc1N1CCN(C(=O)c2cc3c4ccccc4n(C)c3c(-c3ccccc3)n2)CC1 [7f, (4-(2-methoxyphenyl)piperazin-1-yl)(9-methyl-1-phenyl-9H-pyrido[3,4-b]indol-3-yl)methanone] | >36.2 | > 500 | >59.4 | 78.1 | >32.7 | 42.4
93 ± 7.5 | 118 ± 6.4 | 166 to 168 |  |  |  |  |  | Cn1c2ccccc2c2cc(C(=O)N3CCN(c4cccc(Cl)c4Cl)CC3)nc(-c3ccccc3)c21 [7m, (4-(2,3-dichlorophenyl)piperazin-1-yl)(9-methyl-1-phenyl-9H-pyrido[3,4-b]indol-3-yl)methanone] | >5.3 | > 500 | >4.3 |  |  | 
 | 19.5 ± 2.8 | 198 to 200 | 13.9 ± 0.4 |  | 7.9 | 7.2 ± 0.5 |  | Cn1c2ccccc2c2cc(C(=O)N3CCN(c4ccncc4)CC3)nc(-c3ccccc3)c21 [7o, (9-methyl-1-phenyl-9H-pyrido[3,4-b]indol-3-yl)(4-(pyridin-4-yl)piperazin-1-yl)methanone] | 0.48 | 29.7 ± 1.5 | 1.52 | 2.1 |  | 4.1
45.7 ± 3.3 | 8.5 ± 0.75 | 174 to 176 | 12.3 ± 0.6 |  | 9.4 | 7.9 ± 0.3 |  | Cn1c2ccccc2c2cc(C(=O)N3CCN(c4ccccn4)CC3)nc(-c3ccccc3)c21 [7p, (9-methyl-1-phenyl-9H-pyrido[3,4-b]indol-3-yl)(4-(pyridin-2-yl)piperazin-1-yl)methanone] | 5.97 | 273 ± 21.6 |  | 22.2 |  | 34.6
8.31 ± 0.18 | 6.4 ± 0.11 |  | 1.6 ± 0.1 | 2.7 ± 0.4 | 23.7 ± 1.8 |  |  | N=C(N)c1ccc(OCCCCCOc2ccc(C(=N)N)cc2)cc1 [Pentamidine, reference compound] |  |  |  |  |  | 

Further lines, the compound ahead of its results:

Structure (SMILES) | EC50 [1] [µM] | EC50 [3] [µM] | melting point [°C] | EC50 ([4]; Leishmania donovani) [µM] | EC50 [5] [µM] | EC50 [6, 7] [µM] | EC50 [6] [µM] | EC50 [4] [µM] | S.I (CC50/IC50), L. infantum promastigote [1] | CC50 [2] [µM] | S.I (CC50/IC50), L. donovani promastigote [3] | S.I (CC50/IC50), L. donovani axenic amastigote [4] | S.I (CC50/IC50), L. infantum axenic amastigote [5] | S.I (CC50/IC50), L. donovani intracellular amastigote [6]
Cn1c2ccccc2c2cc(C(=O)N3CCN(c4ccccc4)CC3)nc(-c3ccccc3)c21 [7a, (9-methyl-1-phenyl-9H-pyrido[3,4-b]indol-3-yl)(4-phenylpiperazin-1-yl)methanone] | 9.45 ± 0.82 | 11.9 ± 1.2 | 232 to 234 | 10 ± 0.3 | 4.5 ± 0.3 | 13.5 ± 2 |  |  | >52.9 | > 500 | >42.0 | 50.0 | >111.1 | 37.0
Cc1ccc(N2CCN(C(=O)c3cc4c5ccccc5n(C)c4c(-c4ccccc4)n3)CC2)cc1 [7b, (9-methyl-1-phenyl-9H-pyrido[3,4-b]indol-3-yl)(4-p-tolylpiperazin-1-yl)methanone] | 24.3 ± 1.3 | 14.2 ± 1.2 | 188 to 190 | 5.8 ± 0.3 |  | 7.2 | 7.9 ± 0.4 |  | >20.5 | > 500 | >35.2 | 86.2 |  | 63.3
COc1ccc(N2CCN(C(=O)c3cc4c5ccccc5n(C)c4c(-c4ccccc4)n3)CC2)cc1 [7d, (4-(4-methoxyphenyl)piperazin-1-yl)(9-methyl-1-phenyl-9H-pyrido[3,4-b]indol-3-yl)methanone] |  | 0.91 ± 0.09 | 170 to 172 | 0.91 | 1.4 ± 0.1 | 1.4 | 1.3 ± 0.1 | 0.9 ± 0.1 | >314.5 | > 500 | >549.5 | 555.6 | >357.1 | 384.6
COc1cccc(N2CCN(C(=O)c3cc4c5ccccc5n(C)c4c(-c4ccccc4)n3)CC2)c1 [7e, (4-(3-methoxyphenyl)piperazin-1-yl)(9-methyl-1-phenyl-9H-pyrido[3,4-b]indol-3-yl)methanone] | 72.4 ± 6.7 | 28.5 ± 1.8 | 196 to 198 |  |  |  |  |  | >6.9 | > 500 | >17.5 |  |  | 
Cn1c2ccccc2c2cc(C(=O)N3CCN(c4cccc(Cl)c4)CC3)nc(-c3ccccc3)c21 [7h, (4-(3-chlorophenyl)piperazin-1-yl)(9-methyl-1-phenyl-9H-pyrido[3,4-b]indol-3-yl)methanone] |  | 4 ± 0.25 | 130 to 132 | 3.5 |  | 7.9 | 7.8 ± 1.3 | 2.2 ± 0.1 | >9.8 | > 500 | >125 | 227.3 |  | 64.1
Cn1c2ccccc2c2cc(C(=O)N3CCN(c4ccccc4Cl)CC3)nc(-c3ccccc3)c21 [7i, (4-(2-chlorophenyl)piperazin-1-yl)(9-methyl-1-phenyl-9H-pyrido[3,4-b]indol-3-yl)methanone] | 21.7 ± 0.6 | 15.2 ± 0.85 | 152 to 154 | 19.4 ± 1.2 |  | 22 ± 2.1 |  |  | >23.0 | > 500 | >32.9 | 25.8 |  | 22.7
Cn1c2ccccc2c2cc(C(=O)N3CCN(c4ccccc4F)CC3)nc(-c3ccccc3)c21 [7l, (4-(2-fluorophenyl)piperazin-1-yl)(9-methyl-1-phenyl-9H-pyrido[3,4-b]indol-3-yl)methanone] | 64.9 ± 5.7 | 85.9 ± 7.3 | 168 to 170 |  |  |  |  |  | >7.7 | > 500 | >5.8 |  |  | 
Cn1c2ccccc2c2cc(C(=O)N3CCN(Cc4ccccc4)CC3)nc(-c3ccccc3)c21 [7n, (4-benzylpiperazin-1-yl)(9-methyl-1-phenyl-9H-pyrido[3,4-b]indol-3-yl)methanone] | 20.4 ± 1.4 | 4.57 ± 0.24 | 158 to 160 | 2.2 |  | 5.6 ± 0.9 |  | 3.5 ± 0.2 | >24.5 | > 500 | >109.4 | 142.9 |  | 89.3
